Assays:
[1] = tested on: Mi-2β function (CXCL9, CXCL10, IRF1 expression) in A375 cells; assay: Cell-based assay of inhibitory activity on Mi-2β function, A375; settings: summary of Table 3 (A375 and B16)
Method: The total RNA was extracted with QIAGEN RNeasy kit […] for cDNA synthesis with SuperScript II Reverse Transcriptase (Invitrogen). In total, 40 ng cDNA was used for quantitative real-time PCR amplification by TaqMan Gene Expression Master Mix (Thermo Fisher Scientific). The relative transcript levels were normalized with GAPDH expression. The data were calculated with the comparative CT method.

[2] = target: T1, recombinant purified human Mi-2β protein (Homo sapiens, UniProt Q14839); assay: FRET-based nucleosome repositioning assay (EpiDyne-FRET); format: biochemical; settings: FRET-based nucleosome repositioning assay; read-out: IC50 against Mi-2β
T1 construct: made in house
T1 sequence (Q14839 whole entry): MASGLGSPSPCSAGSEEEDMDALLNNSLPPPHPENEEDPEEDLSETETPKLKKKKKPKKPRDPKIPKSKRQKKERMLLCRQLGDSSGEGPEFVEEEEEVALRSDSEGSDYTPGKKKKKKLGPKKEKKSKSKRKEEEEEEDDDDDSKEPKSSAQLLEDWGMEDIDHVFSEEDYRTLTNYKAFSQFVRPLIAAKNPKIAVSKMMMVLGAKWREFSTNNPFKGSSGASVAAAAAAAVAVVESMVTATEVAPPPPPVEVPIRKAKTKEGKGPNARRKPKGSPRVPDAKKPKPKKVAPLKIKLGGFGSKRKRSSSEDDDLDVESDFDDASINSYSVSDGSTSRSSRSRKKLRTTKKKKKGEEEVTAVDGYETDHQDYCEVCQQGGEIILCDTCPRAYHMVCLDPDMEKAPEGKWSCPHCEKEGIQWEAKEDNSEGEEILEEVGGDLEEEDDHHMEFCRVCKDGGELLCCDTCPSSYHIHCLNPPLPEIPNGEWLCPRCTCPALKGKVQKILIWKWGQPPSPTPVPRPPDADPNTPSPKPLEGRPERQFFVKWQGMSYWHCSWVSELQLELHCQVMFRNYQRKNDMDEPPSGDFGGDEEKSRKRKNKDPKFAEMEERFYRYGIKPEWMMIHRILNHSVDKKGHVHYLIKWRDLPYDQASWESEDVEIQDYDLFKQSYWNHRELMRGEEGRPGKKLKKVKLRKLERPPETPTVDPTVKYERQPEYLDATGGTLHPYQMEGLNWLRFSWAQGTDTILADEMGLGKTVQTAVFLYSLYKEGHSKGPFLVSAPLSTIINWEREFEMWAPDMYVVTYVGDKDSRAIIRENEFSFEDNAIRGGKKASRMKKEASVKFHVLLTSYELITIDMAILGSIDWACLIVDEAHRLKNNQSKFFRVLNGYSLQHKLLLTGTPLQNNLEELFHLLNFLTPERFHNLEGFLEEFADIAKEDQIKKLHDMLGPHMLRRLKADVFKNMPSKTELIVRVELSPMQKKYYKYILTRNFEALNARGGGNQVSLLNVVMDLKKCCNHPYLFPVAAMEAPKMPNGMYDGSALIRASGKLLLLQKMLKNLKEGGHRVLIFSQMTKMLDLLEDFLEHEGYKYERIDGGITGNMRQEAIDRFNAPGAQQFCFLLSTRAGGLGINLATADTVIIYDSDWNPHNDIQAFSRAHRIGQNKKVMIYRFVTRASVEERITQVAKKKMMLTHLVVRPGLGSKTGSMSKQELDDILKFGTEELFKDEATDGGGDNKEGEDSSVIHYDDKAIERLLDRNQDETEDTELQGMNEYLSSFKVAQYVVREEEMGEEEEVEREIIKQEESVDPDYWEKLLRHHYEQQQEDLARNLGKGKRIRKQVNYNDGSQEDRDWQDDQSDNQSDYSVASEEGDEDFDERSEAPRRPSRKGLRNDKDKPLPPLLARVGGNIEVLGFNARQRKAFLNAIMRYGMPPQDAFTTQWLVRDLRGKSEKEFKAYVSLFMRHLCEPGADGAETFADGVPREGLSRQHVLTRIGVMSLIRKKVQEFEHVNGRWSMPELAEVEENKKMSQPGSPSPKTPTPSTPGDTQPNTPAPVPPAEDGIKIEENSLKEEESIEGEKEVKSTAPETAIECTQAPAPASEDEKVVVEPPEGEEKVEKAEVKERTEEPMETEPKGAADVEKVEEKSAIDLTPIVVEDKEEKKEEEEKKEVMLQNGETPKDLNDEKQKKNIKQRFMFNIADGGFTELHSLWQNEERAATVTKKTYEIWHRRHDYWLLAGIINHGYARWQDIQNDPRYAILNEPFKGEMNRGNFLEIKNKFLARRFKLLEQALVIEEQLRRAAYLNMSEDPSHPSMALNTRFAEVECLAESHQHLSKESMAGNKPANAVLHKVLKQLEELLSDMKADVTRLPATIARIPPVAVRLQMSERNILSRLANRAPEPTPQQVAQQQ
Method: To screen small molecules that inhibit Mi-2β activity, Homology Modeling was carried out using Structure Prediction Wizard in Prime (49, 50). Mi-2β belongs to the CHD family of chromatin remodelers, which share highly conserved ATPase/helicase domains (51, 52). The Homology Model of Mi-2β was generated using the yeast CHD1 structure (PDB code: 3MWY) as template and the sequence was obtained from Uniprot (53), which clearly depicted the interaction of Mi-2β binding pocket and ATP (FIG. 10a). Virtual screening was done with the enzyme hinge region ligands database and nucleoside mimetic database from Enamine. All ligands of ˜23,010 compounds were docked to the ATP binding site using SP docking and post-processed with Prime MM-GBSA. Ligands with a methyldihydroimidazopyridinone structure were predicted to bind best to the ATP binding region of Mi-2β. To analyze biochemically the inhibitory activity of those inhibitors, a Fluorescence Resonance Energy Transfer (FRET)-based nucleosome repositioning assay (54, 55) was designed and modified using recombinant purified human Mi-2β protein to screen an in-house library of small molecular compounds with a methyldihydroimidazopyridinone structure (FIG. 10b). Briefly, the recombinant nucleosome substrates consist of a Cy5-labeled human histone octamer (H2A T120C-Cy5) wrapped with 5′ Cy3-labeled DNA, which contains a terminal nucleosome 601 positioning sequence. The 601 sequence provides the most thermodynamically preferred locations on DNA for histone octamer (56). FRET signaling was monitored by exciting the nucleosomes at the Cy3 absorption maximum and measuring Cy5 emissions and consequently the FRET signal is at a maximum at the assembled starting point. In the presence of ATP, Mi-2β induces the histone octamer to translocate along the DNA such that the Cy3-labeled DNA 5′ end is moved away from the Cy5-labeled octamer and consequently the FRET signal is decreased (FIG. 10b). The reaction conditions for nucleosome repositioning were modified through multiple rounds of optimization and validation (FIG. 10c-d). […]

melanoma = settings: clinical data; cited from earlier work

Compound	inhibitory activity on Mi-2β function (enhanced expression of IFN-γ-responsive genes) [1]	IC50 [2]	melanoma patients that respond (melanoma)
Cc1c(C(=O)NC2CCn3ccnc3C2)cccc1-c1cnc2[nH]c(=O)n(C)c2c1 (stereo not shown) [SJW-6-004]	high inhibitory activity		
Cn1c(=O)[nH]c2ncc(-c3cccc(C(=O)NC4CCn5ccnc5C4)c3)cc21 (stereo not shown) [Z36]	high inhibitory activity	6.97 ± 2.07 µM	
Cn1c(=O)n(C)c2ncc(-c3cccc(C(=O)NC4CCn5ccnc5C4)c3)cc21 (stereo not shown) [ZW-7-023]	high inhibitory activity		
O=C(NC1CCn2ccnc2C1)c1cccc(-c2cnc3[nH]c(=O)n(Cc4cccc(C(F)(F)F)c4)c3c2)c1 (stereo not shown) [ZW-7-059]	high inhibitory activity		
ipilimumab: anti-CTLA-4 antibody			20%
pembrolizumab: anti-PD-1 antibody			33%
